Counter-ions that a name gives are not always drawn.
What follows are compounds tested against T1, BoNT/A LC1-429 (Clostridium botulinum, UniProt P0DPI1) (assay: biochemical). Conditions: not given.
T1 sequence (P0DPI1 1-429, added parts left off): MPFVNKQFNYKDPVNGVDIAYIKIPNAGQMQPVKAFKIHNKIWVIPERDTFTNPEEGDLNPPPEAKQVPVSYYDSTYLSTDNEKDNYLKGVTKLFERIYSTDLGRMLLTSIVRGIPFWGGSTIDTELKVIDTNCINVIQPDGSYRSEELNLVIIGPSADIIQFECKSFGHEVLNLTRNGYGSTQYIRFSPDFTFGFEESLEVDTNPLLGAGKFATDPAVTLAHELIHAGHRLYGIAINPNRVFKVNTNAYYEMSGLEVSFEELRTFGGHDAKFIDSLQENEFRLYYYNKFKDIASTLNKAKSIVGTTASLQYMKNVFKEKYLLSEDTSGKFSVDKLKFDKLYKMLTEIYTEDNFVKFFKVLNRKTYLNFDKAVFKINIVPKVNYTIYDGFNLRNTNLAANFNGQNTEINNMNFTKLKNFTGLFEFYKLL

| Structure (SMILES) | Ki [nM] |
| --- | --- |
| CCO[C@H](CC(=O)NO)[C@H](Cc1ccccc1)c1ccc(F)cc1 [Example 1-1, (3R,4R)-3-ethoxy-4-(4-fluorophenyl)-N-hydroxy-5-phenylpentanamide] | 38.5 |
| CCO[C@H](CC(=O)NO)[C@H](Cc1cccc(Br)c1)c1ccc(F)cc1 [Example 1-2, (3R,4R)-5-(3-bromophenyl)-3-ethoxy-4-(4-fluorophenyl)-N-hydroxypentanamide] | 154 |
| CCO[C@H](CC(=O)NO)[C@H](Cc1ccc(Br)cc1)c1ccc(F)cc1 [Example 1-4, (3R,4R)-5-(4-bromophenyl)-3-ethoxy-4-(4-fluorophenyl)-N-hydroxypentanamide] | 6.8 |
| C=Cc1ccc(C[C@H](c2ccc(F)cc2)[C@@H](CC(=O)NO)OCC)cc1 [Example 1-5, (3R,4R)-3-ethoxy-4-(4-fluorophenyl)-N-hydroxy-5-(4-vinylphenyl)pentanamide] | 33.5 |
| CCO[C@H](CC(=O)NO)[C@H](Cc1ccc(CC)cc1)c1ccc(F)cc1 [Example 1-6, (3R,4R)-3-ethoxy-5-(4-ethylphenyl)-4-(4-fluorophenyl)-N-hydroxypentanamide] | 91.5 |
| CCO[C@H](CC(=O)NO)[C@H](Cc1ccc(C(=O)NC)cc1)c1ccc(F)cc1 [Example 1-7] | 1220 |

These compounds were tested against T1, BoNT/A LC1-429 (assay: biochemical). Conditions: BoNT/A Ki (nM).

| Structure (SMILES) | Ki [nM] |
| --- | --- |
| CO[C@H](CC(=O)NO)[C@H](Cc1ccc(Cl)cc1C)c1ccc(F)cc1 [Example 6-5, (3R,4R)-5-(4-chloro-2-methylphenyl)-4-(4-fluorophenyl)-N-hydroxy-3-methoxypentanamide potassium salt] | 3.88 |
| CCO[C@H](CC(=O)NO)[C@H](Cc1ccc(Cl)cc1Cl)c1ccc(Br)cc1 [Example 6-6, (3R,4R)-4-(4-bromophenyl)-5-(2,4-dichlorophenyl)-3-ethoxy-N-hydroxypentanamide] | 4.9 |
| CO[C@H](CC(=O)NO)[C@H](Cc1ccc(Cl)cc1)c1ccc(C(=O)N(C)C)cc1 [Example 6-7, 4-((2R,3R)-1-(4-chlorophenyl)-5-(hydroxyamino)-3-methoxy-5-oxopentan-2-yl)-N,N-dimethylbenzamide] | 26.2 |
| CO[C@H](CC(=O)NO)[C@H](Cc1ccc(Cl)cc1C)c1ccc(CN2CCOCC2)cc1F [Example 6-8, (3R,4R)-5-(4-chloro-2-methylphenyl)-4-(2-fluoro-4-(morpholinomethyl)phenyl)-N-hydroxy-3-methoxypentanamide] | 45.8 |
| CCO[C@H](CC(=O)NO)[C@H](Cc1ccc(Cl)cc1)c1ccc(Cl)c(N2CCOCC2)c1 [Example 6-9, (3R,4R)-4-(4-chloro-3-morpholinophenyl)-5-(4-chlorophenyl)-3-ethoxy-N-hydroxypentanamide] | 5.8 |
| CCO[C@H](CC(=O)NO)[C@H](Cc1ccc(Cl)cc1C)c1ccc(F)cc1F [Example 6-10, (3R,4R)-5-(4-chloro-2-methylphenyl)-4-(2,4-difluorophenyl)-3-ethoxy-N-hydroxypentanamide] | 10 |
| CCO[C@H](CC(=O)NO)[C@H](Cc1ccc(Cl)cc1)c1ccc(F)cc1F [Example 6-11, (3R,4R)-5-(4-chlorophenyl)-4-(2,4-difluorophenyl)-3-ethoxy-N-hydroxypentanamide] | 10.3 |
| CO[C@H](CC(=O)NO)[C@H](Cc1ccc(F)cc1F)c1ccc(F)cc1F [Example 6-12, (3R,4R)-4,5-bis(2,4-difluorophenyl)-N-hydroxy-3-methoxypentanamide] | 29.5 |
| O=C(C[C@@H](OCc1ccccc1)[C@H](Cc1ccc(Cl)cc1)c1ccc(F)cc1F)NO [Example 6-13, (3R,4R)-3-(benzyloxy)-5-(4-chlorophenyl)-4-(2,4-difluorophenyl)-N-hydroxypentanamide] | 114 |
| COCCO[C@H](CC(=O)NO)[C@H](Cc1ccc(Cl)cc1)c1ccc(F)cc1F [Example 6-14, (3R,4R)-5-(4-chlorophenyl)-4-(2,4-difluorophenyl)-N-hydroxy-3-(2-methoxyethoxy)pentanamide] | 55.1 |
| CCCCO[C@H](CC(=O)NO)[C@H](Cc1ccc(Cl)cc1)c1ccc(F)cc1F [Example 6-15, (3R,4R)-3-butoxy-5-(4-chlorophenyl)-4-(2,4-difluorophenyl)-N-hydroxypentanamide] | 48.5 |
| CCCO[C@H](CC(=O)NO)[C@H](Cc1ccc(Cl)cc1)c1ccc(F)cc1F [Example 6-16, (3R,4R)-5-(4-chlorophenyl)-4-(2,4-difluorophenyl)-N-hydroxy-3-propoxypentanamide] | 38.5 |
| O=C(C[C@@H](OCC1CC1)[C@H](Cc1ccc(Cl)cc1)c1ccc(F)cc1F)NO [Example 6-17, (3R,4R)-5-(4-chlorophenyl)-3-(cyclopropylmethoxy)-4-(2,4-difluorophenyl)-N-hydroxypentanamide] | 52.4 |
| O=C(C[C@@H](OCCO)[C@H](Cc1ccc(Cl)cc1)c1ccc(F)cc1F)NO [Example 6-18, (3R,4R)-5-(4-chlorophenyl)-4-(2,4-difluorophenyl)-N-hydroxy-3-(2-hydroxyethoxy)pentanamide] | 8.75 |
| O=C(C[C@@H](OCCCO)[C@H](Cc1ccc(Cl)cc1)c1ccc(F)cc1F)NO [Example 6-19, (3R,4R)-5-(4-chlorophenyl)-4-(2,4-difluorophenyl)-N-hydroxy-3-(3-hydroxypropoxy)pentanamide] | 1.45 |
| CO[C@H](CC(=O)NO)[C@H](Cc1ccc(Cl)cc1)c1ccc(F)cc1F [Example 6-20, (3R,4R)-5-(4-chlorophenyl)-4-(2,4-difluorophenyl)-N-hydroxy-3-methoxypentanamide potassium salt] | 8.3 |
| CCO[C@H](CC(=O)NO)[C@H](Cc1ccc(Cl)cc1)c1ccc(F)cc1F [Example 6-21, (3R,4R)-5-(4-chlorophenyl)-4-(2,4-difluorophenyl)-3-ethoxy-N-hydroxypentanamide potassium salt] | 12 |
| CO[C@H](CC(=O)NO)[C@H](Cc1ccc(Cl)cc1C)c1ccc(F)cc1F [Example 6-22, (3R,4R)-5-(4-chloro-2-methylphenyl)-4-(2,4-difluorophenyl)-N-hydroxy-3-methoxypentanamide potassium salt] | 6.7 |
| CO[C@H](CC(=O)NO)[C@H](Cc1ccc(Cl)cc1C)c1ccc(Br)cc1F [Example 6-23, (3R,4R)-4-(4-bromo-2-fluorophenyl)-5-(4-chloro-2-methylphenyl)-N-hydroxy-3-methoxypentanamide] | 1.94 |
| CCO[C@H](CC(=O)NO)[C@H](Cc1ccc(Cl)cc1)c1ccc(Cl)c(Br)c1 [Example 6-24, (3R,4R)-4-(3-bromo-4-chlorophenyl)-5-(4-chlorophenyl)-3-ethoxy-N-hydroxypentanamide] | 8.1 |
| CC(C)(C)OC(=O)NCCCO[C@H](CC(=O)NO)[C@H](Cc1ccc(Cl)cc1)c1ccc(F)cc1F [Example 6-25, tert-butyl (3-(((3R,4R)-5-(4-chlorophenyl)-4-(2,4-difluorophenyl)-1-(hydroxyamino)-1-oxopentan-3-yl)oxy)propyl)carbamate] | > 150000 |
| NCCCO[C@H](CC(=O)NO)[C@H](Cc1ccc(Cl)cc1)c1ccc(F)cc1F [Example 6-26, (3R,4R)-3-(3-aminopropoxy)-5-(4-chlorophenyl)-4-(2,4-difluorophenyl)-N-hydroxypentanamide] | 55000 |
| O=C(O)CCO[C@H](CC(=O)NO)[C@H](Cc1ccc(Cl)cc1)c1ccc(F)cc1F [Example 6-27, 3-(((3R,4R)-5-(4-chlorophenyl)-4-(2,4-difluorophenyl)-1-(hydroxyamino)-1-oxopentan-3-yl)oxy)propanoic acid] | 361 |

Source: patent publication US9505710B2 (priority 2015, dated 2016)
